From ChEMBL document CHEMBL1201862, “PubChem BioAssay data set” (2004) come the findings set out here.

Format in all cases: functional
The target in test [1] is T1, Tyrosine-protein kinase receptor TYRO3 (Homo sapiens, UniProt Q06418).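 Note: TYRO3 value obtained as one member of a kinome-wide profiling panel.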
T1 sequence (Q06418 whole entry): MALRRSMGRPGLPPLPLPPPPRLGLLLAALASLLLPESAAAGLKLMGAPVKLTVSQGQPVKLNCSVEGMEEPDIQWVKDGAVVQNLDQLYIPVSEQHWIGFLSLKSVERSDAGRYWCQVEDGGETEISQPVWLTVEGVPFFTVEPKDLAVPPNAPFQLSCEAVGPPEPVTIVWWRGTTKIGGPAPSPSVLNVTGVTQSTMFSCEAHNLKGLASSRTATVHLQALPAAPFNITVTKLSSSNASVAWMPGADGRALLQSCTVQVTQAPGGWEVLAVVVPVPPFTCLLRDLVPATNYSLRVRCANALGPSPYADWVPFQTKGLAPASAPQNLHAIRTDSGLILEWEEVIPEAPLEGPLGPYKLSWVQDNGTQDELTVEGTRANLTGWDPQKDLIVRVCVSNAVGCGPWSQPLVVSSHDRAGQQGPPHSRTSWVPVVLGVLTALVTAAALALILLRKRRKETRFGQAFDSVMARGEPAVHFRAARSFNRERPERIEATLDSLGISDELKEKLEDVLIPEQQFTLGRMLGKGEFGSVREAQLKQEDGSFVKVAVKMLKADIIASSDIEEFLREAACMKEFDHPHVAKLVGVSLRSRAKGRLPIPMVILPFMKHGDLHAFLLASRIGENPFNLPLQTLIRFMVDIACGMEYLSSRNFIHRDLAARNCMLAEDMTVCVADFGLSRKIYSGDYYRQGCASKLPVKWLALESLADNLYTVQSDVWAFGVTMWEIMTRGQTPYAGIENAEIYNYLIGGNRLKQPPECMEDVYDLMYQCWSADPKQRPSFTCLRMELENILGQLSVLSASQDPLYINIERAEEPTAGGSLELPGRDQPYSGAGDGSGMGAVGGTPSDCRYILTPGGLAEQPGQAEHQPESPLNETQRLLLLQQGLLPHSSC

The target of test [2] is Dual specificity tyrosine-phosphorylation-regulated kinase 1B (Homo sapiens, UniProt Q9Y463). The test can be described thus: Navigating the Kinome. Panel member name: DYRK1B.
Chain of Dual specificity tyrosine-phosphorylation-regulated kinase 1B (Q9Y463 whole entry): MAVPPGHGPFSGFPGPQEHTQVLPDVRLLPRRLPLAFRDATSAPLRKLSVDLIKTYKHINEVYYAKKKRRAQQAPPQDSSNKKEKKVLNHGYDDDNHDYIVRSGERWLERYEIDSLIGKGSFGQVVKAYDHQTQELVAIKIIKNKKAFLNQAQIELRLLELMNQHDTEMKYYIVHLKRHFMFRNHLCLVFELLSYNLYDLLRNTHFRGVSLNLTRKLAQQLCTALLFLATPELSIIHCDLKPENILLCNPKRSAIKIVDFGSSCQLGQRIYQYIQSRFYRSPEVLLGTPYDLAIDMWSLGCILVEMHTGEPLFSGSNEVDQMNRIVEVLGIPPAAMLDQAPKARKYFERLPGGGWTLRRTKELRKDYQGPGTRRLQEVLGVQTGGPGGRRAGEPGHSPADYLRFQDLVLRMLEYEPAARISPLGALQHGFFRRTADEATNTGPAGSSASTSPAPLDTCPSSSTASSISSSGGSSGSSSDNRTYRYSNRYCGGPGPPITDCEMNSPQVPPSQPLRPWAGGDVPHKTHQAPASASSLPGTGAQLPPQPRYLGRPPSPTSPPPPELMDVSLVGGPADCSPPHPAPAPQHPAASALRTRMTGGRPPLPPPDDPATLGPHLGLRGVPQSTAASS
Test [3] has as its target Leukocyte tyrosine kinase receptor (Homo sapiens, UniProt P29376). The test can be described thus: Navigating the Kinome. Panel member name: LTK.
Test [4] addresses Leucine-rich repeat serine/threonine-protein kinase 2 (Homo sapiens, UniProt Q5S007).
Test [5] deals with G protein-coupled receptor kinase 5 (Homo sapiens, UniProt P34947). As to the kind of experiment: Navigating the Kinome. Panel member name: GPRK5.
Chain of G protein-coupled receptor kinase 5 (P34947 whole entry): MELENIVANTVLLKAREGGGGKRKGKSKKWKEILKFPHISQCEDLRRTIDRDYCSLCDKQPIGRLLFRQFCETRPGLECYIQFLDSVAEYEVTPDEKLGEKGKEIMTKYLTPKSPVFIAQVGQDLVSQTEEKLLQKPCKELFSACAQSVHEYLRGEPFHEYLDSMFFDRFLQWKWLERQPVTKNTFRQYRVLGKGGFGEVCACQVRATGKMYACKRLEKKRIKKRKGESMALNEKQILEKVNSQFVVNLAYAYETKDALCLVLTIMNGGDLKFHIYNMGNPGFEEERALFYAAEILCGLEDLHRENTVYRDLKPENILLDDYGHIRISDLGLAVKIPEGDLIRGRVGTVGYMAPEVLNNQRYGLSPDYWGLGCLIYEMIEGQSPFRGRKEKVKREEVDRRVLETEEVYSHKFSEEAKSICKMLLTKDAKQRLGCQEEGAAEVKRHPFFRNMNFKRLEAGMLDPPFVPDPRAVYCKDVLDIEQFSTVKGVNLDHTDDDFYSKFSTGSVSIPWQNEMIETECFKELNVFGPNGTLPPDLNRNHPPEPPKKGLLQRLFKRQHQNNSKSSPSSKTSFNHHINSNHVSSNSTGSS
Test [6] deals with Dual specificity protein kinase CLK4 (Homo sapiens, UniProt Q9HAZ1).
Chain of Dual specificity protein kinase CLK4 (Q9HAZ1 whole entry, canonical isoform): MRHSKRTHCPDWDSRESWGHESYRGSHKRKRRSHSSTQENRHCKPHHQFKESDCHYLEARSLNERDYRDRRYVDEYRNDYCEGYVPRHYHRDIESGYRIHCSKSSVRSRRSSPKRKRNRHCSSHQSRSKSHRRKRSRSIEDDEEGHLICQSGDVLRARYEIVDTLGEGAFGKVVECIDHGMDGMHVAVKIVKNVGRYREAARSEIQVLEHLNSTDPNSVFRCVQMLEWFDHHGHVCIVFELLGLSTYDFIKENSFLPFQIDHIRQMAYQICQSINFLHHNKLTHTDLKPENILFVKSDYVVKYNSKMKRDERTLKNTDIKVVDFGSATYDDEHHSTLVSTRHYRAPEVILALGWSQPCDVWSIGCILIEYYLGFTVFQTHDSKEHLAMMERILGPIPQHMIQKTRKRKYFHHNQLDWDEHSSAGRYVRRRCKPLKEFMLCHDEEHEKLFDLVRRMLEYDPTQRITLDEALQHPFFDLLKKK
Test [7] concerns the target Casein kinase I isoform alpha (Homo sapiens, UniProt P48729).
The target of test [8] is T2, Serine/threonine-protein kinase Chk1 (Homo sapiens, UniProt O14757).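 Note: measured as one member of a kinome-wide kinase profiling panel.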
T2 sequence (O14757 whole entry): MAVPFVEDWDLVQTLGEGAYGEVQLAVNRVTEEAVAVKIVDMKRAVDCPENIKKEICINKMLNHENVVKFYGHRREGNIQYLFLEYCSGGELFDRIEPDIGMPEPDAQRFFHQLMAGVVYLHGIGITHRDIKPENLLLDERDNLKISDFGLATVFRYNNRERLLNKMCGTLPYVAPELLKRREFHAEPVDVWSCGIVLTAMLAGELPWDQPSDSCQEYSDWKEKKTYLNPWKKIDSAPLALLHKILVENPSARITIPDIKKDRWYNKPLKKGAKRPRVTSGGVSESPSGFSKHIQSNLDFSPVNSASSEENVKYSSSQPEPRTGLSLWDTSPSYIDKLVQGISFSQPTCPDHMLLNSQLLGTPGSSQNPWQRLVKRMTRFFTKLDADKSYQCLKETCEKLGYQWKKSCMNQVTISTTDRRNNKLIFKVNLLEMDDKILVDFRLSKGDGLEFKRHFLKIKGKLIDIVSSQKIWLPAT

The target of the next test is LIM domain kinase 1 (Homo sapiens, UniProt P53667). As to the kind of experiment: Navigating the Kinome. Panel member name: LIMK1.
The target of test [9] is Mitogen-activated protein kinase kinase kinase kinase 2 (Homo sapiens, UniProt Q12851).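 Note: measured as one member of a kinome-wide kinase panel, with MAP4K2 as the panel entry.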
Chain of Mitogen-activated protein kinase kinase kinase kinase 2 (Q12851 whole entry): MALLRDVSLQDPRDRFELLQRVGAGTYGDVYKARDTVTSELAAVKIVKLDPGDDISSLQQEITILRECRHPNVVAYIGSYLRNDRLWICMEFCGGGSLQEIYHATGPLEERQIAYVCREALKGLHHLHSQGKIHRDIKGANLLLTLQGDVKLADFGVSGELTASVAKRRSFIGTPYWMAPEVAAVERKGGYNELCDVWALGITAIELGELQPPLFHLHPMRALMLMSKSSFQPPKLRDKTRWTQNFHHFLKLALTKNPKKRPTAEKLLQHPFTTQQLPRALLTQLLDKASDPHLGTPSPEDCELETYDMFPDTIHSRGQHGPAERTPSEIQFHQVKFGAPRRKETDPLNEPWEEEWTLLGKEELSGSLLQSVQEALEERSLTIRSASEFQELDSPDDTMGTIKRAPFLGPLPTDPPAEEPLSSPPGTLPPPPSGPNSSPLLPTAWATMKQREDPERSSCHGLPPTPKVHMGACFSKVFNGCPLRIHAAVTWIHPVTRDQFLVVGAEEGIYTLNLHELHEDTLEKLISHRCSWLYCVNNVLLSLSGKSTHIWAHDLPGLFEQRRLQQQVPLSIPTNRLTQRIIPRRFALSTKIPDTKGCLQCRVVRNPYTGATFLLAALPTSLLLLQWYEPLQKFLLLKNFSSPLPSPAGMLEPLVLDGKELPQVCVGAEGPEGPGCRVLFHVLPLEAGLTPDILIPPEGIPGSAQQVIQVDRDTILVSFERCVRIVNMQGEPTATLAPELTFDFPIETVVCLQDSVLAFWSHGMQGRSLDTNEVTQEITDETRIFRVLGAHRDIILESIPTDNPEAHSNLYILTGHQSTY
Test [10] addresses Dual specificity mitogen-activated protein kinase kinase 2 (Homo sapiens, UniProt P36507). The test can be described thus: Navigating the Kinome. Panel member name: MAP2K2.
In test [11] the target is Cyclin-dependent kinase 8 (Homo sapiens, UniProt P49336). The test can be described thus: Navigating the Kinome. Panel member name: CDK8.
Chain of Cyclin-dependent kinase 8 (P49336 whole entry): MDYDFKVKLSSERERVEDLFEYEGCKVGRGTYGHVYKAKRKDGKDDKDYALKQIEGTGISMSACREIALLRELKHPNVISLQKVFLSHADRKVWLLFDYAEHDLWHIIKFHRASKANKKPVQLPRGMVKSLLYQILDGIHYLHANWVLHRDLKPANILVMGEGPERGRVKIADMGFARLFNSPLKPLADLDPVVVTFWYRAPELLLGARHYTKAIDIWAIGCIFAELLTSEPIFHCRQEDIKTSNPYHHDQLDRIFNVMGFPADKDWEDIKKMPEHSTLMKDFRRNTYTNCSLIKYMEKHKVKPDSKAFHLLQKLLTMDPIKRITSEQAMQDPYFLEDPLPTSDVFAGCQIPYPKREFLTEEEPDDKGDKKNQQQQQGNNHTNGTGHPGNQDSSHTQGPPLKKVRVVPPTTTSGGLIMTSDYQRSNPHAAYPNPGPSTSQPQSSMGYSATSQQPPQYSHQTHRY
Test [12] concerns the target Serine/threonine-protein kinase pim-1 (Homo sapiens, UniProt P11309).
For test [13], the target named is T3, Multidrug resistance protein CDR2 (Candida albicans (strain SC5314 / ATCC MYA-2876) (Yeast), UniProt P78595).
T3 sequence (P78595 whole entry): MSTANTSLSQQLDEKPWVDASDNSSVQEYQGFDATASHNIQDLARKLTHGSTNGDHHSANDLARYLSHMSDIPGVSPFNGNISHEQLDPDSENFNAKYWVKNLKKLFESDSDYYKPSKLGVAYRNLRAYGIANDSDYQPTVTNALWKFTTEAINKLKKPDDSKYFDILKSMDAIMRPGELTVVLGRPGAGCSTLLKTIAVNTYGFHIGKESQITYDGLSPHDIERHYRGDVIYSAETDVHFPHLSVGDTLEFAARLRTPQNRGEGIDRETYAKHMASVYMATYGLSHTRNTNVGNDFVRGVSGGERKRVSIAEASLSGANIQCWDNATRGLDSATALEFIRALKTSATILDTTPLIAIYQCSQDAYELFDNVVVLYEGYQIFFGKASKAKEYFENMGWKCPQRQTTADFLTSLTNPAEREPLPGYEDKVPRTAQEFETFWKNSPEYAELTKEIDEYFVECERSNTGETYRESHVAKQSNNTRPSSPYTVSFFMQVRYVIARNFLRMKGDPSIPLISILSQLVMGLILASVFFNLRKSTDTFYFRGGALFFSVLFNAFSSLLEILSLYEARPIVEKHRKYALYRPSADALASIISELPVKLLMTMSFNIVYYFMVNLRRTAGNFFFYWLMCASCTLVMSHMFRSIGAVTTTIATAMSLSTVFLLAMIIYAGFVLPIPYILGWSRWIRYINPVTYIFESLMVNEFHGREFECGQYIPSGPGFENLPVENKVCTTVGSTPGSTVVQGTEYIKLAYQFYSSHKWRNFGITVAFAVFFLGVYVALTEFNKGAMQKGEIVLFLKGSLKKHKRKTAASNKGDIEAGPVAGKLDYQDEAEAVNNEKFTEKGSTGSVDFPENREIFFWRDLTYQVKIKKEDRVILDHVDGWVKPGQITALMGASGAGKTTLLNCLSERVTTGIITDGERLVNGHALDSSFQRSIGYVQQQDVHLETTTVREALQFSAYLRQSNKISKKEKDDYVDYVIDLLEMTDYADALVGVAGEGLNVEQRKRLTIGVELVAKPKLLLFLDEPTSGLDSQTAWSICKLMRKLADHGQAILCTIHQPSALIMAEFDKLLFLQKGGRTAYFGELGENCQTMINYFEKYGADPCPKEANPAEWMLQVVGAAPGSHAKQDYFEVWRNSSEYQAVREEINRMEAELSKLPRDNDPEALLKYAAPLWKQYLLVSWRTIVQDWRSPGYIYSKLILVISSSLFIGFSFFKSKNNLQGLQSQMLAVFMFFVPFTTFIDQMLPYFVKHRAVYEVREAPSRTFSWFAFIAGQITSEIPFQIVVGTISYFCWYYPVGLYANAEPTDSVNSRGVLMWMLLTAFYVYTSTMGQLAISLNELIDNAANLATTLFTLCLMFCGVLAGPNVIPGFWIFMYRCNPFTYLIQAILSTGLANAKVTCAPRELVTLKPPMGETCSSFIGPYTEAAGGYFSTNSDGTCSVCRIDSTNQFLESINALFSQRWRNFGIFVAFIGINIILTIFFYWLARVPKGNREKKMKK
The test can be described thus: inhibition of Nile Red efflux via Candida CDR2 – S. cerevisiae AD1-8u, singleplex, Cherry Pick1 hits, dose response (AID 588604).

The target in test [14] is T4, Small ubiquitin-related modifier 1 (Homo sapiens, UniProt P63165). As to the kind of experiment: SUMO1 protein-protein binding blockers, potency – biochemical, FRET, dose response (AID 624383). Particulars: read-out: IC50_Mean.
T4 sequence (P63165 whole entry): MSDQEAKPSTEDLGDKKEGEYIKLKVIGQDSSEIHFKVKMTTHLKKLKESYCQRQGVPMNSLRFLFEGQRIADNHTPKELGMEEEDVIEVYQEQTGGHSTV
Test [15] deals with T4, Small ubiquitin-related modifier 1. The test can be described thus: SUMO1 protein interaction blockers, potency – biochemical, fluorescence polarization, uHTS hits, dose response (AID 624382). Particulars: read-out: IC50_Mean.
The next test addresses T5, Insulin-degrading enzyme (Homo sapiens, UniProt P14735).
T5 sequence (P14735 whole entry): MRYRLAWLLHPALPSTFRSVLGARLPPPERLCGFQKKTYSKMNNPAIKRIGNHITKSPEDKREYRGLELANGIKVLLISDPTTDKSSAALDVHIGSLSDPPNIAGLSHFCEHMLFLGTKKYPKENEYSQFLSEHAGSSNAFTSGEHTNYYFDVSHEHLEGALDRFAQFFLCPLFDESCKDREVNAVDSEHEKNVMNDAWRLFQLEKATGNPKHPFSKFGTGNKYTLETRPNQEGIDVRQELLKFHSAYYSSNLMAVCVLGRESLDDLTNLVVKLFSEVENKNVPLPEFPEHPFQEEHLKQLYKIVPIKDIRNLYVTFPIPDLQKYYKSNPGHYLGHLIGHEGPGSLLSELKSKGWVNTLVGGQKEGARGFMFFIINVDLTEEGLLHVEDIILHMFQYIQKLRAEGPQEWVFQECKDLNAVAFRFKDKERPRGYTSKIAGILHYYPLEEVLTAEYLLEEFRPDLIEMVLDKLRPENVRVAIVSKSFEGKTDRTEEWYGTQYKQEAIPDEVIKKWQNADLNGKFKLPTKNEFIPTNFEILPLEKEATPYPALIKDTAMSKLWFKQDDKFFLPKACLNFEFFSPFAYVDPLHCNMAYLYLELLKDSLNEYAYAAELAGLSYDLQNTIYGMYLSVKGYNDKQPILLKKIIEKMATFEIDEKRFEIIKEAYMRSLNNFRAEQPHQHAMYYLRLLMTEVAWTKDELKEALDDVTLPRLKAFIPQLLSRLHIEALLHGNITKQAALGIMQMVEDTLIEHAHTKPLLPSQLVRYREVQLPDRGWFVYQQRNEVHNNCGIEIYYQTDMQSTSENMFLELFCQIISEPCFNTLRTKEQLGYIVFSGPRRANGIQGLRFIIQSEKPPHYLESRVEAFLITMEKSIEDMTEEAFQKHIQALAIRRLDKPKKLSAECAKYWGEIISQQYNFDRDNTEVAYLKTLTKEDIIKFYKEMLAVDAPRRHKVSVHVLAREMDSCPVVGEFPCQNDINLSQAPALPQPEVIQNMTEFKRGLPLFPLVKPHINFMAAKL
As to the kind of experiment: Dose Response: Fluorescence polarization-based cell-based high throughput dose response assay for inhibitors of insulin-degrading enzyme (IDE). [Related pubchem assays: 434962 (Primary screen (IDE inhibitors in singlicate)), 449730 (Counterscreen (Cytotoxicity in triplicate)), 435028 (Confirmation (IDE inhibitors in triplicate)), 434984 (Summary ….

Test [16] can be described thus: Counterscreen for IDE inhibitors: Luminescence-based cell-based high throughput dose response assay to identify compounds that are cytotoxic to HEK cells. [Related pubchem assays: 434962 (Primary screen (IDE inhibitors in singlicate)), 449730 (Counterscreen (Cytotoxicity in triplicate)), 435028 (Confirmation (IDE inhibitors in triplicate)) …. Particulars: HEK293.

The source made the active and inactive calls.

Chain of Casein kinase I isoform alpha (P48729 whole entry, canonical isoform): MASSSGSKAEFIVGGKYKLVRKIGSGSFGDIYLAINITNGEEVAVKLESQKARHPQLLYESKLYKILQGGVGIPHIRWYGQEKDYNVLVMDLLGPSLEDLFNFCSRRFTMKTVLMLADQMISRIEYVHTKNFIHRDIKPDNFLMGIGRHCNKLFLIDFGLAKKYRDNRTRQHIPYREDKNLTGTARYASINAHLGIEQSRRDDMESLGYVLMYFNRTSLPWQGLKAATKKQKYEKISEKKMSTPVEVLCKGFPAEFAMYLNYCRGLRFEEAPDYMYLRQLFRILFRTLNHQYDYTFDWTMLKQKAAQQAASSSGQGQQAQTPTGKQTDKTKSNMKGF
Chain of Dual specificity mitogen-activated protein kinase kinase 2 (P36507 whole entry): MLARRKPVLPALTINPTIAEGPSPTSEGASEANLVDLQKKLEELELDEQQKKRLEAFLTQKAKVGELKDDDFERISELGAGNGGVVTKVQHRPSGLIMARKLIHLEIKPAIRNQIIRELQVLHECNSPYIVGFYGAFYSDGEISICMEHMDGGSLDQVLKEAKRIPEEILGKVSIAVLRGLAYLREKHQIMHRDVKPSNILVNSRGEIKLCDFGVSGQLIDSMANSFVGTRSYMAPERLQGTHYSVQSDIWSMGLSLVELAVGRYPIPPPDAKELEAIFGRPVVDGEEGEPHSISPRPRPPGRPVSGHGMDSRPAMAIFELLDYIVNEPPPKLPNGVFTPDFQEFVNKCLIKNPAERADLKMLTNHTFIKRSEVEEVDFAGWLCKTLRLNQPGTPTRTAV
Chain of Leukocyte tyrosine kinase receptor (P29376 whole entry): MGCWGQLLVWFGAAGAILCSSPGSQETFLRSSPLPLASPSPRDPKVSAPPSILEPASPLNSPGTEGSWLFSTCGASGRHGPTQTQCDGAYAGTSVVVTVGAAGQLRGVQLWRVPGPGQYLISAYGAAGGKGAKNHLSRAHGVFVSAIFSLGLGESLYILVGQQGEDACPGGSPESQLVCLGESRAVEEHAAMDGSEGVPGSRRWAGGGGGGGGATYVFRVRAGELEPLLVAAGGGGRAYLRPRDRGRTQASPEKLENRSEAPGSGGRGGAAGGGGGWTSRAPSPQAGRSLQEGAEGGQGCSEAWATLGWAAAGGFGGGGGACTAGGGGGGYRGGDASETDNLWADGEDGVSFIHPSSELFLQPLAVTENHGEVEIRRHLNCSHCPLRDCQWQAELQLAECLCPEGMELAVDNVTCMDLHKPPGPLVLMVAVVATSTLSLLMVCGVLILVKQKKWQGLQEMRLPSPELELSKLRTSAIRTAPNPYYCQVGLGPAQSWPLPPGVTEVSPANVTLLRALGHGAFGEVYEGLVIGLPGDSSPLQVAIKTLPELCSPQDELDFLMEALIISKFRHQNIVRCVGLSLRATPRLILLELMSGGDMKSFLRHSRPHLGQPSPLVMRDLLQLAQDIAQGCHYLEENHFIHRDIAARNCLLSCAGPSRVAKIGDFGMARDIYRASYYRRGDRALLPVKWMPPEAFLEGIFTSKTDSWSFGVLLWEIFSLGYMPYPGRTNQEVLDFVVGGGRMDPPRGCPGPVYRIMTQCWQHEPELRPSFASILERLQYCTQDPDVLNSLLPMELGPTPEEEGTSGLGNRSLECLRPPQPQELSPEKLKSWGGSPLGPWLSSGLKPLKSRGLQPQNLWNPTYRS
Chain of Serine/threonine-protein kinase pim-1 (P11309 whole entry): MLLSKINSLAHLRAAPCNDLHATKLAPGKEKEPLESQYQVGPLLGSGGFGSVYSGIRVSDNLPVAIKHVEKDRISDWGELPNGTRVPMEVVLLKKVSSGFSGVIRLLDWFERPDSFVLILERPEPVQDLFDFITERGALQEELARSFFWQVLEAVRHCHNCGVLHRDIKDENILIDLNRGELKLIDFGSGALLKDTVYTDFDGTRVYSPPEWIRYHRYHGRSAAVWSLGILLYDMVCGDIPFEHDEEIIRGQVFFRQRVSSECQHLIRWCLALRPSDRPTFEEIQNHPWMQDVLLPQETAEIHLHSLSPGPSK

In the case of `Nc1nnc2cccc(Cl)n12`, the Ki in test [1] was 50.1 µM (active); in test [2] it was 63.1 µM (active); in test [3], 100 µM (active); in test [4], 100 µM (active); in test [5] it was 50.1 µM (active); in test [6], 63.1 µM (active). Moreover, the Ki in test [7] is 79.4 µM (active); in test [8], 63.1 µM (active); at LIM domain kinase 1, 63.1 µM (active).
Take `Nc1cc2c(Oc3ccc(Cl)cc3)cncc2s1`: the Ki in [9] is 2.51 µM (active); in test [10], 1.26 µM (active); in test [11], 1 µM (active); in [12], 2.51 µM (active).
As to `O=C1Nc2ccccc2/C1=C/c1c[nH]c(-c2ccccc2)n1`, the EC50 in test [13] is 3.89 µM (active). The IC50 was 4.96 µM (active) in test [14], > 66.6 µM (inactive) in [15], > 55.9 µM (not active) on Insulin-degrading enzyme and 18.1 µM (not active) in test [16].
